The values that follow are results of earlier work, collected in US8709996B2, “Pharmaceutical treatment process using chitosan or derivative thereof” (Archimedes Development Limited, priority 2003, dated 2014).

The conditions of the data set: pig, in vivo.

For the substance chitosan hydrochloride, the “bioavailability of octreotide compared to a solution of octreotide alone” value is given as “substantial increases in bioavailability”.
As to trimethyl chitosan chloride, the “bioavailability of octreotide compared to a solution of octreotide alone” value was “substantial increases in bioavailability”.
